Laboratory results as given in paper PMC2972656 (Bioorganic & medicinal chemistry, 2010).
Structures can show the parent of a compound that is named as a salt.

Experiments:
[1] = tested on: other receptors; test: NIMH supported PDSP screen; assay type: binding
[2] = biological target: α5β3γ2 GABAA/BzR (Homo sapiens, UniProt P18507+P31644); test: [3H]flunitrazepam competition binding, α5β3γ2
[3] = biological target: T1, α1β3γ2 GABAA/BzR (Homo sapiens, UniProt P14867+P18507); test: [3H]flunitrazepam competition binding, α1β3γ2; details: for selectivity for the α1β3γ2 subtype: enantiomeric sec-butyl esters
[4] = biological target: T1, α1β3γ2 GABAA/BzR; details: binding; cited from earlier work
[5] = tested on: alcohol preferring (P) rats; details: 15–60 mg/kg, comparable with chlordiazepoxide; cited from earlier work
[6] = tested on: BzR; test: Binding to BzR, overall statement; design: species or system human; details: Boc protection at position-9
[7] = biological target: α2β3γ2 GABAA/BzR (Homo sapiens, UniProt P18507+P47869); test: [3H]flunitrazepam competition binding, α2β3γ2

C#Cc1ccc2[nH]c3cnc(C(=O)OC(C)(C)C)cc3c2c1 [7(WYS8), 6-Ethynl-9H-β-carboline-3-carboxylic acid t-butyl ester]
interactions at other receptors [1]: neither βCCT, 3PBC, nor WYS8 exhibited significant interactions at other receptors

CC(C)COc1cc2c(cn1)[nH]c1ccccc12 [compound 37]
Ki [2]: ≥ 1000 nM

CC[C@H](C)OC(=O)c1cc2c(cn1)[nH]c1ccccc12 [compound 23, (S)-β-Carboline-3-carboxylic acid sec-butyl ester]
Ki [2]: 1440 nM
selectivity for the α1β3γ2 subtype ([3]; binding): ~4 fold

c1ccc(COc2cc3c4ccccc4nc-3c[nH]2)cc1 [compound 35, 3-benzyloxy β-carboline]
Ki [3]: 830 nM

CCCOc1cc2c(cn1)[nH]c1ccccc12 [2(3-PBC), 3-propoxy-β-carboline hydrochloride]
selectivity for the α1 site over the α5 subtype [4]: over 150 fold
selectivity for the α1 subtype over the α2 and α3 receptors [4]: 10 fold
interactions at other receptors [1]: neither βCCT, 3PBC, nor WYS8 exhibited significant interactions at other receptors
effects in the plus maze [5]: anxiolytic effects

C#Cc1ccc2c(c1)c1cc(C(=O)OC(C)(C)C)ncc1n2C(=O)OC(C)(C)C [compound 40]
binding to BzR [6]: did not bind to BzR at all

CC[C@@H](C)OC(=O)c1cc2c(cn1)[nH]c1ccccc12 [compound 24, (R)-β-Carboline-3-carboxylic acid sec-butyl ester]
selectivity for the α1β3γ2 subtype ([3]; binding): ~4 fold
Ki [7]: 32.5 nM

CC(C)(C)OC(=O)c1cc2c3cc(I)ccc3n(C(=O)OC(C)(C)C)c2cn1 [compound 41]
binding to BzR [6]: did not bind to BzR at all

C[C@@H](OC(=O)c1cc2c(cn1)[nH]c1ccccc12)C(F)(F)F [compound 22, (R)-1,1,1-Trifluoroisopropyl β-carboline-3-carboxylate]
selectivity for α1 isoforms over α5 isoforms ([3]; binding): ~70 fold
